Measured values as given in patent publication US12421253B2 (Mirati Therapeutics, Inc., priority 2020, dated 2025).

Legend:
[1] = system: H460 cells, pERK; experiment: Inhibition of KRas phosphorylation of ERK (Cisbio HTRF Advanced pERK assay); format: cell-based; conditions: Homo sapiens, NCI-H460, 3 hrs, read-out: Inhibition (HTRF IC50 nM) of KRas-mediated Phosphorylation of ERK, H460
Method in brief: (§1)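 pERK measured by HTRF in lysates from cells treated 3 h with compound, 10 uM top, 3-fold steps, 10 doses, 0.8% DMSO final. Cells (6,000/well, RPMI 10% FBS) had been plated overnight at 37 °C; 0.2 uM trametinib defined minimum signal; antibody detection 2 h at room temperature.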

[2] = system: H727 cells, pERK; experiment: as above; format: cell-based; conditions: Homo sapiens, NCI-H727, 3 h, read-out: Inhibition (HTRF IC50 nM) of KRas-mediated Phosphorylation of ERK, H727
Method in brief: as §1

[3] = system: MKN1 cells, pERK; experiment: as above; format: cell-based; conditions: Homo sapiens, MKN-1, 3 h, read-out: Inhibition (HTRF IC50 nM) of KRas-mediated Phosphorylation of ERK, MKN1
Method in brief: as §1

[4] = system: ASPC1 cells, pERK; experiment: as above; format: cell-based; conditions: Homo sapiens, ASPC1, 3 h, AsPC-1 cells, read-out: Inhibition (HTRF IC50 nM) of KRas-mediated Phosphorylation of ERK, AsPC-1
Method in brief: as §1

[5] = system: PSN1 cells, pERK; experiment: as above; format: cell-based; conditions: Homo sapiens, PSN1, 3 h, read-out: Inhibition (HTRF IC50 nM) of KRas-mediated Phosphorylation of ERK, PSN1
Method in brief: as §1

[6] = system: HCT116 cells, pERK; experiment: as above; format: cell-based; conditions: Homo sapiens, HCT-116, 3 hrs, read-out: Inhibition (HTRF IC50 nM) of KRas-mediated Phosphorylation of ERK, HCT116
Method in brief: as §1

[7] = molecular target: T1, KRas^G12R (Homo sapiens, UniProt P01116, G12R); experiment: KRas binding assay (TR-FRET displacement of Cy5 labelled tracer)
T1 construct: […]; biotin (biotinylated); purchased Accelegan Inc

[8] = molecular target: T2, KRas^G12V (Homo sapiens, UniProt P01116, G12V); experiment: as above
T2 construct: […]; biotin (biotinylated); purchased Accelegan Inc

[9] = molecular target: T3, KRas^G12D (Homo sapiens, UniProt P01116, G12D); experiment: as above
T3 construct: […]; biotin (biotinylated); purchased Accelegan Inc
T3 sequence (P01116 1-169 isoform P01116-2 G12D): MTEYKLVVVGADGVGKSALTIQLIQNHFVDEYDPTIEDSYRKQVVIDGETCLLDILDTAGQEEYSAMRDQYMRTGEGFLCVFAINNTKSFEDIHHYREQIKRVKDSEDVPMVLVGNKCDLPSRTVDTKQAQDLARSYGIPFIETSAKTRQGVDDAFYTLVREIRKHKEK

T2 sequence (P01116 1-169 isoform P01116-2 G12V): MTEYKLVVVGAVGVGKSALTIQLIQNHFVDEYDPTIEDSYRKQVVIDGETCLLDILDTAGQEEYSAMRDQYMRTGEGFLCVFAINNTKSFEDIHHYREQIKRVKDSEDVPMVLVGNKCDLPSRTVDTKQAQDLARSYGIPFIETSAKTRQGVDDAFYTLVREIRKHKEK
T1 sequence (P01116 1-169 isoform P01116-2 G12R): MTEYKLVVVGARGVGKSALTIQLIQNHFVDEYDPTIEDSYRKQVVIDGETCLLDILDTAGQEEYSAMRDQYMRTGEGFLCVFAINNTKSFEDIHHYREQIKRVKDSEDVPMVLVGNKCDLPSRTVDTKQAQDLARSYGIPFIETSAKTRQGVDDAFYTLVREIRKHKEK

IC50 [1] | IC50 [2] | IC50 [3] | IC50 [4] | IC50 [5] | IC50 [6] | IC50 [7] | IC50 [8] | IC50 [9] | SMILES
285 nM | 313 nM | 12 nM | 136 nM | 1690 nM | 499 nM | ≤ 2 nM | ≤ 2 nM | ≤ 2 nM | CCc1c(F)ccc2cc(O)cc(N3CCc4c(nc(OC[C@@]56CCCN5C[C@H](F)C6)nc4N4CCCC5(CNC(=O)C5)C4)C3)c12 (stereo partly drawn) [Example 197, 7-(7-(8-ethyl-7-fluoro-3-hydroxynaphthalen-1-yl)-2-(((2R,7aS)-2-fluorohexahydro-1H-pyrrolizin-7a-yl)methoxy)-5,6,7,8-tetrahydropyrido[3,4-d]pyrimidin-4-yl)-2,7-diazaspiro[4.5]decan-3-one]
325 nM | 234 nM | 19 nM | 320 nM | 607 nM | – | ≤ 2 nM | ≤ 2 nM | ≤ 2 nM | O=C1CC2(CCCN(c3nc(OC[C@@]45CCCN4C[C@H](F)C5)nc4c3CCN(c3cc(O)cc5ccc(F)c(Br)c35)C4)C2)N1 (stereo partly drawn) [Example 223, 6-(7-(8-bromo-7-fluoro-3-hydroxynaphthalen-1-yl)-2-(((2R,7aS)-2-fluorohexahydro-1H-pyrrolizin-7a-yl)methoxy)-5,6,7,8-tetrahydropyrido[3,4-d]pyrimidin-4-yl)-1,6-diazaspiro[3.5]nonan-2-one]
1560 nM | 600 nM | 462 nM | 383 nM | ≥ 10000 nM | – | 6 nM | 8 nM | 4 nM | CCc1c(F)ccc2cc(O)cc(N3CCc4c(nc(OC[C@@]56CCCN5C[C@H](F)C6)nc4N4CCCc5ncccc5C4)C3)c12 [Example 180, 4-(4-(8,9-dihydro-5H-pyrido[3,2-c]azepin-6(7H)-yl)-2-(((2R,7aS)-2-fluorohexahydro-1H-pyrrolizin-7a-yl)methoxy)-5,6-dihydropyrido[3,4-d]pyrimidin-7(8H)-yl)-5-ethyl-6-fluoronaphthalen-2-ol]
1020 nM | 1580 nM | 97 nM | 448 nM | 6120 nM | – | 4 nM | 3 nM | 3 nM | CC1(O)COCCN(c2nc(OC[C@@]34CCCN3C[C@H](F)C4)nc3c2CCN(c2cc(O)cc4ccc(F)c(Br)c24)C3)C1 (stereo partly drawn) [Example 219, 4-(7-(8-bromo-7-fluoro-3-hydroxynaphthalen-1-yl)-2-(((2R,7aS)-2-fluorohexahydro-1H-pyrrolizin-7a-yl)methoxy)-5,6,7,8-tetrahydropyrido[3,4-d]pyrimidin-4-yl)-6-methyl-1,4-oxazepan-6-ol]
– | 3720 nM | 1540 nM | 5120 nM | ≥ 10000 nM | – | 46 nM | 52 nM | 143 nM | CCc1c(F)ccc2cc(O)cc(N3CCc4c(nc(OC[C@@]56CCCN5C[C@H](F)C6)nc4N4C[C@H]5CC[C@@H](O)[C@H]5C4)C3)c12 [Example 185, (3aR,4R,6aS)-2-(7-(8-ethyl-7-fluoro-3-hydroxynaphthalen-1-yl)-2-(((2R,7aS)-2-fluorotetrahydro-1H-pyrrolizin-7a(5H)-yl)methoxy)-5,6,7,8-tetrahydropyrido[3,4-d]pyrimidin-4-yl)octahydrocyclopenta[c]pyrrol-4-ol]

The next lines start with the compound.

SMILES | IC50 [1] | IC50 [2] | IC50 [3] | IC50 [4] | IC50 [5] | IC50 [6] | IC50 [7] | IC50 [8] | IC50 [9]
CCc1c(F)ccc2cc(O)cc(N3CCc4c(nc(OC[C@@]56CCCN5C[C@H](F)C6)nc4N4CCOCC(CO)C4)C3)c12 (stereo partly drawn) [Example 65, 5-ethyl-6-fluoro-4-(2-(((2R,7aS)-2-fluorohexahydro-1H-pyrrolizin-7a-yl)methoxy)-4-(6-(hydroxymethyl)-1,4-oxazepan-4-yl)-5,6-dihydropyrido[3,4-d]pyrimidin-7(8H)-yl)naphthalen-2-ol] | – | 739 nM | 26 nM | 1290 nM | 4420 nM | 1210 nM | ≤ 2 nM | ≤ 2 nM | 3 nM
CCc1c(F)ccc2cc(O)cc(N3CCc4c(nc(OC[C@@]56CCCN5C[C@H](F)C6)nc4N4CC5CC(O)C(C5)C4)C3)c12 (stereo partly drawn) [Example 63, 3-(7-(8-ethyl-7-fluoro-3-hydroxynaphthalen-1-yl)-2-(((2R,7aS)-2-fluorohexahydro-1H-pyrrolizin-7a-yl)methoxy)-5,6,7,8-tetrahydropyrido[3,4-d]pyrimidin-4-yl)-3-azabicyclo[3.2.1]octan-6-ol] | – | 608 nM | 33 nM | 457 nM | 6960 nM | 1170 nM | ≤ 2 nM | ≤ 2 nM | 8 nM
Nc1cc2n(n1)CCCN(c1nc(OC[C@@]34CCCN3C[C@H](F)C4)nc3c1CCN(c1cc(O)cc4ccc(F)c(Cl)c14)C3)C2 [Example 75, 4-(4-(2-amino-7,8-dihydro-4H-pyrazolo[1,5-a][1,4]diazepin-5(6H)-yl)-2-(((2R,7aS)-2-fluorohexahydro-1H-pyrrolizin-7a-yl)methoxy)-5,6-dihydropyrido[3,4-d]pyrimidin-7(8H)-yl)-5-chloro-6-fluoronaphthalen-2-ol] | – | 242 nM | 128 nM | 128 nM | ≥ 10000 nM | 2160 nM | ≤ 2 nM | 3 nM | ≤ 2 nM
CC1(O)COCCN(c2nc(OC[C@@]34CCCN3C[C@H](F)C4)nc3c2CCN(c2cc(O)cc4ccc(F)c(Cl)c24)C3)C1 (stereo partly drawn) [Example 74, 4-(7-(8-chloro-7-fluoro-3-hydroxynaphthalen-1-yl)-2-(((2R,7aS)-2-fluorohexahydro-1H-pyrrolizin-7a-yl)methoxy)-5,6,7,8-tetrahydropyrido[3,4-d]pyrimidin-4-yl)-6-methyl-1,4-oxazepan-6-ol] | – | 790 nM | 78 nM | 253 nM | 4050 nM | 1450 nM | 4 nM | 3 nM | ≤ 2 nM
CCc1c(F)ccc2cc(O)cc(N3CCc4c(nc(OC[C@@]56CCCN5C[C@H](F)C6)nc4N4CCCC5(CNS(=O)(=O)N5)C4)C3)c12 (stereo partly drawn) [Example 61, 7-(7-(8-ethyl-7-fluoro-3-hydroxynaphthalen-1-yl)-2-(((2R,7aS)-2-fluorohexahydro-1H-pyrrolizin-7a-yl)methoxy)-5,6,7,8-tetrahydropyrido[3,4-d]pyrimidin-4-yl)-2-thia-1,3,7-triazaspiro[4.5]decane 2,2-dioxide] | – | 1200 nM | 51 nM | 211 nM | 3650 nM | 2380 nM | 9 nM | 4 nM | 4 nM
CCc1c(F)ccc2cc(O)cc(N3CCc4c(nc(OC[C@@]56CCCN5C[C@H](F)C6)nc4N4CCCC5(CNC5=O)C4)C3)c12 (stereo partly drawn) [Example 64, 6-(7-(8-ethyl-7-fluoro-3-hydroxynaphthalen-1-yl)-2-(((2R,7aS)-2-fluorohexahydro-1H-pyrrolizin-7a-yl)methoxy)-5,6,7,8-tetrahydropyrido[3,4-d]pyrimidin-4-yl)-2,6-diazaspiro[3.5]nonan-1-one] | – | 778 nM | 83 nM | 595 nM | 2630 nM | 891 nM | ≤ 2 nM | ≤ 2 nM | ≤ 2 nM
CCc1c(F)ccc2cc(O)cc(N3CCc4c(nc(OC[C@@]56CCCN5C[C@H](F)C6)nc4N4CCCC5(CC(O)C5)C4)C3)c12 (stereo partly drawn) [Example 60, 6-(7-(8-ethyl-7-fluoro-3-hydroxynaphthalen-1-yl)-2-(((2R,7aS)-2-fluorohexahydro-1H-pyrrolizin-7a-yl)methoxy)-5,6,7,8-tetrahydropyrido[3,4-d]pyrimidin-4-yl)-6-azaspiro[3.5]nonan-2-ol] | – | 258 nM | 29 nM | 556 nM | 6610 nM | 1120 nM | ≤ 2 nM | ≤ 2 nM | ≤ 2 nM
O=C1CC2(CCCN(c3nc(OC[C@@]45CCCN4C[C@H](F)C5)nc4c3CCN(c3cc(O)cc5ccc(F)c(Cl)c35)C4)C2)N1 (stereo partly drawn) [Example 70, 6-(7-(8-chloro-7-fluoro-3-hydroxynaphthalen-1-yl)-2-(((2R,7aS)-2-fluorohexahydro-1H-pyrrolizin-7a-yl)methoxy)-5,6,7,8-tetrahydropyrido[3,4-d]pyrimidin-4-yl)-1,6-diazaspiro[3.5]nonan-2-one] | – | 471 nM | 40 nM | 705 nM | 750 nM | 1490 nM | ≤ 2 nM | ≤ 2 nM | ≤ 2 nM
